Calls of active or inactive are those of the source.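 How the source made its calls: active means compounds giving half or more protection of infected cells from virus-caused growth loss, again on retest; inactive means the rest.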 Where a SMILES comes first, the peptide text is derived from it. [ ]: non-standard residue; d: D form. The star is where a group is joined. ξ: configuration not given here. Boc = CC(C)(C)OC(=O)*; ξV = CC(C)C(N)C(=O)O; OBn = c1ccc(CO*)cc1
Tested on: CEM cells HIV-1 protection, formazan growth assay
Experiment: NCI AIDS Antiviral Assay
Details: for IC50: measured here: growth of uninfected CEM cells
Summary of the method: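 Category rules: moderately active means at least 50% protection on retest, and confirmed active means 100% protection reproducibly. The underlying data came from a formazan growth assay in HIV-1-infected CEM cells.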

SMILES | EC50 [µM] | IC50 [µM] | outcome
C=C1c2nc3ccccc3n2C=C(c2ccc(OC)cc2)N1c1ccccc1 | > 200 | 3.8 | –
COc1cc(/C=C2\C(=O)N(c3cccc([N+](=O)[O-])c3)C(c3ccccc3)S2(=O)=O)cc(OC)c1OC (stereo unspecified) | – | – | inactive
CC(C)C(NC(=O)CNC(=O)OC(C)(C)C)C(=O)NCC(=O)OCc1ccccc1 (stereo not drawn) (Boc-Gly-[ξV]-Gly-OBn) | > 200 | > 200 | –
Cc1cc(=O)n2c(nc3cc(C)c(C)cc32)s1 | > 200 | > 200 | –
CCCCOC1CC2(c3ccc(OC)cc3)C(=O)c3ccccc3N2O1 (stereo unspecified) | > 112 | 24 | –
Cc1ccc(/C=c2\c(=O)[nH]c3nc4ccccc4c(=O)n23)cc1 | > 200 | 22.4 | –
C1CNCCSCCCSCCNC1 | > 200 | > 200 | –
CC(=O)O[C@H]1CC[C@]2(C)C3CC[C@]4(C)C([C@H](C)CCCC(C)C)CCC4[C@]3(C#N)n3c(=O)n(-c4ccccc4)c(=O)n3[C@]2(C#N)C1 (stereo partly specified) | > 200 | > 200 | –
COc1ccc(C2c3cc4c(cc3C(O)C3CCC(=O)N23)OCO4)cc1 (stereo unspecified) | > 200 | > 200 | –
CC(=O)c1cccc(N2COC(C)(C)c3nc4ccccc4n3C2)c1 | > 200 | 107 | –
O=C1OC(=O)c2c1c(-c1ccccc1)cn2-c1ccc(Cl)cc1 | – | – | inactive
C=C1C(OC(=O)C(OC(C)=O)C(c2ccccc2)N(C)C)C[C@H](OC(C)=O)[C@]2(C)C1C(OC(C)=O)[C@@H]1CC(OC(C)=O)C(C)=C([C@@H](OC(C)=O)C2OC(C)=O)C1(C)C (stereo partly specified) | – | – | inactive
CN(C)CC1C2C=CC(C3CC23)C1CN(C)C (stereo unspecified) | – | – | inactive
CC1(N)COP(=O)(NCc2ccccc2)OC1 (stereo unspecified) | > 676 | 589 | –
O=C1NCCN1C(=O)Nc1ccc(S(=O)(=O)c2ccc([N+](=O)[O-])cc2)cc1 | > 200 | 74.1 | –
CCCCCCCCCCCCCCCC(=O)Nc1ccn(C2CCC(COP(=O)(O)OCC3OC(n4ccc(NC(=O)CCCCCCCCCCCCCCC)nc4=O)CC3OP(=O)(O)OCC3OC(n4ccc(NC(=O)CCCCCCCCCCCCCCC)nc4=O)CS3)O2)c(=O)n1 (stereo unspecified) | 1.1 | 83.2 | –
Cc1cccnc1NC(=S)Nc1cccc(C(F)(F)F)c1 | > 200 | 16.2 | –
O=C(CO[N+](=O)[O-])OCC(=O)c1ccccc1 | – | – | inactive
O=C1c2ccccc2C(=O)c2c(SSc3cccc4c3C(=O)c3ccccc3C4=O)cccc21 | > 200 | > 200 | –
CC(C)=CCC[C@]1(C)C=Cc2c(O)c3c(c(CC=C(C)C)c2O1)O[C@]12C(=C[C@@H]4CC1C(C)(C)O[C@@]2(C/C=C(/C)C(=O)O)C4=O)C3=O | > 0.2 | 0.0631 | –
COc1cc2c(cc1OC)C(=O)/C(=C/c1ccccc1)C2 | > 200 | 151 | –
O=c1[nH]c(=S)[nH]n1C(=S)n1[nH]c(=S)[nH]c1=O | > 200 | > 200 | –

SMILES | EC50 [µM] | IC50 [µM] | outcome
COCOC1CCCC[C@@]1(OCCOCCO[C@@]1(c2ccccc2)CCCC[C@H]1OCOC)c1ccccc1 (stereo partly specified) | > 5.01 | > 5.01 | –
CCN1CN(c2ccccc2)C2(CCN(CCCSc3ccc(F)cc3)CC2)C1=O | > 200 | 10 | –
COC(=O)CP(=O)(OCC(F)(F)F)OCC(F)(F)F | > 794 | 437 | –
COc1cc(O)c(C(=O)/C=C/c2ccc(OC)c(OCc3ccccc3)c2)c(OC)c1 | – | – | inactive
COC(=O)C1(Cc2ccc3c(c2)CCC3)Cc2ccc3c(c2C1O)CCC3 (stereo unspecified) | > 200 | 12.3 | –
Cc1cccc(C(C)(C)C)c1NC(=O)CCc1nc(=S)[nH][nH]1 | > 562 | 240 | –
OCC1NC(COC2OC(CO)C(O)C(O)C2O)C(O)C(O)C1O (stereo unspecified) | – | – | inactive
c1ccc2nc3c(nc2c1)[nH]c1ccccc13 | > 12.3 | > 12.3 | –
O=C1c2sccc2[C@H](NC(=O)C(F)(F)F)[C@@H]1Cl | > 200 | > 200 | –
CCOC(=O)C(=O)Nc1c(CC)cccc1C(C)CC (stereo unspecified) | > 646 | > 646 | –
CCOC(=O)c1cc(C2(O)CCN(Cc3ccccc3)C2=O)c(-c2cc(C)no2)[nH]1 (stereo unspecified) | > 200 | 38.9 | –
COc1cccc(C2c3cc4c(cc3OC(O)C2C)OCO4)c1OC (stereo unspecified) | > 200 | 1.51 | –
Cc1ccc2nc3nc(C)c(C)nc3nc2c1 | 1.15 | 14.5 | –
Nc1nc2c(ncn2CC2OC(CO)C(CO)O2)c(=O)[nH]1 (stereo unspecified) | > 115 | > 115 | –
O=C1N2Cc3c4ccc5c3CN3C(=O)N6Cc7c(ccc(c7CN1C6(c1ccccc1)C23c1ccccc1)OCCOCCNCCOCCO4)OCCOCCNCCOCCO5 (stereo unspecified) | > 6.03 | > 6.03 | –
CC(=O)/C=C/c1cccc(N=S)c1 | > 2.82 | > 2.82 | –
CN1CN(C)N(C(=O)c2ccccc2)CN1C(=O)c1ccccc1 | > 200 | 97.7 | –
CC1=NN(C(=O)c2ccccc2O)C(=O)/C1=C/c1ccc([N+](=O)[O-])cc1 | > 53.7 | 0.0912 | –
Nc1ncnc2c1ncn2CC1OC(CO)C(CO)O1 (stereo unspecified) | > 891 | > 891 | –
O=C1OC2C=CC1C1C(=O)OC(=O)C21 (stereo unspecified) | > 200 | > 200 | –
CC(C)CCC[C@@H](C)C1CCC2[C@@H]3CCC4C[C@@H](CCCC=C(c5cc(Cl)c(O)c(C(=O)O)c5)c5cc(Cl)c(O)c(C(=O)O)c5)CC[C@]4(C)C3CC[C@@]21C (stereo partly specified) | 63.1 | 166 | –
Cc1cc(C=C2C(=O)NC(=S)NC2=O)c(C)n1-c1ccccc1 | > 6.17 | > 6.17 | –

SMILES | EC50 [µM] | IC50 [µM] | outcome
COI1NC(=O)c2ccccc21 | 17.4 | 295 | –
COCCn1cnc2c(Cl)nc(Nc3ccccc3)nc21 | > 200 | 28.8 | –
CN(C)CCCn1cnc2ncccc2c1=O | – | – | inactive
NCP1(=O)CNC(=O)NC1 | > 1510 | > 1510 | –
O=C1C(=O)N(c2ccc(Cl)cc2)C(=O)C(=O)C1c1nc2ccccc2o1 | – | – | inactive
Oc1ccc(C23CC4CC(CC(C4)C2)C3)cc1 | – | – | inactive
COc1ccc(-c2csc3c2[N+]2(C)C=CC=C2C3N2CCCC2)cc1 (stereo unspecified) | > 200 | 8.51 | –
CC1CCCN(CC(O)CN2CCN(CC(O)CN3CCCC(C)C3)CC2)C1 (stereo unspecified) | > 13.2 | > 13.2 | –
Cc1c(CCC(C)C)oc2cc3oc(CCC(C)C)c(C)c3cc12 | > 70.8 | > 70.8 | –
Fc1ccccc1C=NC12CC3CC(CC(C3)C1)C2 | > 20.4 | > 20.4 | –
COC(=O)c1cc(C(c2cc(C(=O)OC)c(O)cc2C)C(Cl)(Cl)Cl)c(C)cc1O | > 200 | 5.75 | –
N#Cc1nc2ccccc2nc1N1CCN(c2ccc([N+](=O)[O-])cc2)CC1 | > 200 | > 200 | –
COC1CC2(C[Si](C)(C)C)OC(=O)OC2C(C)O1 (stereo unspecified) | – | – | inactive
CN(C)/C=C(\C(=O)c1ccccc1)n1nc(-c2ccccc2)cc1-c1ccccc1 | > 200 | 87.1 | –
S=c1nc2[nH]c3ccccc3c2n[nH]1 | > 200 | > 200 | –
O=C(O)C(CS)NCc1c2ccccc2[n+]([O-])c2ccccc12 (stereo unspecified) | – | – | inactive
CCOc1ccncc1[N+](=O)[O-] | > 200 | > 200 | –
COc1cccc(NC(=O)C(C#N)=C(SC)SC)c1 | > 200 | 7.94 | –
C#CCOC(=O)c1ccccc1OC(C)=O | > 200 | > 200 | –
O=C(O)CC1NC(/C(=C/c2ccccc2)NC(=O)c2ccccc2)OC1=O (stereo unspecified) | > 200 | 9.12 | –
CC1CN=C(Nc2ccccc2)S1 (stereo unspecified) | > 200 | > 200 | –
O=C(O)CC/C(=N\Nc1nsc2ccccc12)c1ccccc1 | > 11.5 | 8.13 | –

SMILES | EC50 [µM] | IC50 [µM] | outcome
COC(=O)c1ccc(C)cc1CC1Cc2ccc(C)cc2C1=O (stereo unspecified) | > 200 | 4.79 | –
Cc1cc(N(CCC#N)CCC#N)ccc1/C(N=Nc1cccc(Cl)c1)=N/NC(=O)c1cc(Cl)ccc1O | > 200 | 11.7 | –
O=C1c2ccccc2C(=O)N1C/C=N/NS(=O)(=O)c1ccc(Cl)cc1 | > 95.5 | > 95.5 | –
COP(=O)(Cc1ccccc1)Cc1ccccc1 | > 200 | > 200 | –
CC(=O)Oc1ccc(-c2oc3c([C@H]4C=C(C)CC(c5ccc(OC(C)=O)cc5OC(C)=O)[C@@H]4C(=O)c4ccc(OC(C)=O)c(CC=C(C)C)c4OC(C)=O)c(OC(C)=O)cc(O)c3c(=O)c2CC=C(C)C)c(OC(C)=O)c1 (stereo partly specified) | > 11.7 | 7.41 | –
CCc1n[nH]c(=O)n1CCCCCCCCn1c(CC)n[nH]c1=O | > 200 | > 200 | –
c1cc2sc3ccc(OCCCN4CCCCC4)cc3c2cc1OCCCN1CCCCC1 | > 93.3 | 1.58 | –
N#Cc1c(-c2ccccc2)cc(-c2ccccc2)n(C2OCC(O)C(O)C2O)c1=S (stereo unspecified) | > 200 | 21.4 | –
COc1ccc(C(SCC(N)C(=O)O)(c2ccc(OC)cc2)c2ccc(OC)cc2)cc1 (stereo unspecified) | > 200 | 31.6 | –
O=C(CCCn1ccnc1[N+](=O)[O-])NCCn1ccnc1 | – | – | inactive
CN(C(=O)C12C3C4C5C3C1(C(=O)C13C6C7C8C6C1C8C73)C5C42)C(C)(C)C (stereo unspecified) | > 135 | > 135 | –
CN(C)c1ccc(/C=C(\NC(=O)c2ccccc2)C(=O)NC(CC(=O)O)C(=O)O)cc1 (stereo unspecified) | – | – | inactive
O=C(OCC1OC(c2nn[nH]n2)C(OC(=O)c2ccccc2)C1OC(=O)c1ccccc1)c1ccccc1 (stereo unspecified) | > 200 | 70.8 | –
Cc1nc(C(N)=S)sc1C(=O)CC(=O)C(=O)Nc1cccc(Cl)c1C | > 170 | > 170 | –
S=C(N/N=C/c1ccccn1)N1CCCCC1 | > 0.2 | 0.011 | –
Cc1nn(C(=O)c2ccc(Cl)cc2)c2c1C(c1ccco1)SC(N)=N2 (stereo unspecified) | 170 | > 200 | –
COC(=O)CN(CC1O[C@@H]2OC(C)(C)O[C@@H]2C1N=[N+]=[N-])C(=O)OCc1ccccc1 (stereo partly specified) | > 200 | 20.9 | –
Cn1c(=O)c2c(nc3n2CCC(=O)N3)n(C)c1=O | > 251 | > 251 | –
Cc1cc(C2(O)C=C(C(C)(C)C)C(=O)C(C(C)(C)C)=C2)c(C)cc1C1(O)C=C(C(C)(C)C)C(=O)C(C(C)(C)C)=C1 | > 151 | > 151 | –
